Assay results as given in publication PMC12250302, “Synthesis, Antimicrobial Activities, and Model of Action of Novel Tetralone Derivatives Containing Aminoguanidinium Moiety” (International Journal of Molecular Sciences, 2025).
Values after ≈ are worked out from the molar mass of the structure shown.

Assays:
Assay in all cases: MIC and MBC testing, broth microdilution
E. coli ATCC 25922 = format: cell-based, Escherichia coli; conditions: Escherichia coli; for MIC: ATCC25922, 18 h, read-out: MIC; for MBC: ATCC25922, read-out: MBC
From the text: (§1) The minimum inhibitory concentrations (MICs) and minimum bactericidal concentrations (MBCs) of the synthesized compounds effective against ESKAPE strains, S. aureus clinical isolates, and MRSA were investigated by the broth dilution method. Levofloxacin is a broad-spectrum antibacterial agent that is widely used in the treatment of ESKAPE infections. Therefore, levofloxacin was selected as the positive control for the preliminary activity screening. DMSO (0.1%) was selected as the negative control.
(§2) The minimum inhibitory concentration (MIC) of all synthesized compounds was tested by the broth microdilution method. In brief, compounds dissolved in DMSO were diluted twice continuously in a 96-well plate with MH broth. The ESKAPE pathogens (E. coli ATCC 25922, S. aureus ATCC 29213, K. pneumoniae ATCC 700603, A. baumannii ATCC 19606, P. aeruginosa ATCC 27853, and E. faecium ATCC 35667), clinical S. aureus isolates (LMY45, LMY46, LMY47, and LMY48) and methicillin-resistant Staphylococcus aureus (MRSA-1 and MRSA-2) were cultured in MH broth to logarithmic growth phase and then diluted to 1 × 10^6 CFU/mL in MH broth. Subsequently, the diluted bacterial solution was mixed with the diluted compound solution in a 96-well plate and incubated at 37 °C for a duration of 18 h. The MIC of the compounds was recorded as the lowest concentration at which no visible growth was observed. […] Each concentration was replicated thrice.

P. aeruginosa ATCC 27853 = format: cell-based, Pseudomonas aeruginosa; conditions: Pseudomonas aeruginosa; for MIC: ATCC27853, 18 h, read-out: MIC; for MBC: ATCC27853, read-out: MBC
From the text: as §1, §2

MRSA-2 = format: cell-based, Staphylococcus aureus; conditions: Staphylococcus aureus, MRSA-2; for MIC: 18 h, read-out: MIC; for MBC: read-out: MBC
Description: (§3) Furthermore, the MBC values of the compounds were detected.
as §2, with “h.” for “h. The MIC of the compounds was recorded as the lowest concentration at which no visible growth was observed.”

[1] = system: clinical S. aureus isolate LMY47; format: cell-based, Staphylococcus aureus; conditions: Staphylococcus aureus, LMY47; for MIC: 18 h, read-out: MIC; for MBC: read-out: MBC
Description: as §3
as §2, with “h.” for “h. The MIC of the compounds was recorded as the lowest concentration at which no visible growth was observed.”

[2] = system: clinical S. aureus isolate LMY48; format: cell-based, Staphylococcus aureus; conditions: Staphylococcus aureus, LMY48; for MIC: 18 h, read-out: MIC; for MBC: read-out: MBC
Description: as §3
as §2, with “h.” for “h. The MIC of the compounds was recorded as the lowest concentration at which no visible growth was observed.”

[3] = system: clinical S. aureus isolate LMY46; format: cell-based, Staphylococcus aureus; conditions: Staphylococcus aureus, LMY46; for MIC: 18 h, read-out: MIC; for MBC: read-out: MBC
Description: as §3
as §2, with “h.” for “h. The MIC of the compounds was recorded as the lowest concentration at which no visible growth was observed.”

[4] = system: clinical S. aureus isolate LMY45; format: cell-based, Staphylococcus aureus; conditions: Staphylococcus aureus, LMY45; for MIC: 18 h, read-out: MIC; for MBC: read-out: MBC
Description: as §3
as §2, with “h.” for “h. The MIC of the compounds was recorded as the lowest concentration at which no visible growth was observed.”

MRSA-1 = format: cell-based, Staphylococcus aureus; conditions: Staphylococcus aureus, MRSA-1; for MIC: 18 h, read-out: MIC; for MBC: read-out: MBC
Description: as §3
as §2, with “h.” for “h. The MIC of the compounds was recorded as the lowest concentration at which no visible growth was observed.”

S. aureus ATCC 29213 = format: cell-based, Staphylococcus aureus; conditions: Staphylococcus aureus, ATCC29213, S. aureus ATCC 29213; for MIC: 18 h, read-out: MIC; for MBC: read-out: MBC
From the text: as §1, §2

E. faecium ATCC 35667 = format: cell-based, Enterococcus faecium; conditions: Enterococcus faecium, ATCC35667, E. faecium ATCC 35667; for MIC: 18 h, read-out: MIC; for MBC: read-out: MBC
From the text: as §1, §2

A. baumannii ATCC 19606 = format: cell-based, Acinetobacter baumannii; conditions: Acinetobacter baumannii; for MIC: ATCC19606, 18 h, read-out: MIC; for MBC: ATCC19606, read-out: MBC
From the text: as §1, §2

[5] = system: K. pneumoniae ATCC 700603; format: cell-based, Klebsiella pneumoniae; conditions: Klebsiella pneumoniae; for MIC: ATCC700603, 18 h, read-out: MIC; for MBC: ATCC700603, read-out: MBC
From the text: as §1, §2

| SMILES | MIC (E. coli ATCC 25922) [µg/mL] | MBC (E. coli ATCC 25922) [µg/mL] | MIC (P. aeruginosa ATCC 27853) [µg/mL] | MIC (MRSA-2) [µg/mL] | MBC (MRSA-2) [µg/mL] | MIC [1] [µg/mL] | MBC [1] [µg/mL] | MIC [2] [µg/mL] | MBC [2] [µg/mL] | MIC [3] [µg/mL] | MBC [3] [µg/mL] | MIC [4] [µg/mL] | MBC [4] [µg/mL] | MIC (MRSA-1) [µg/mL] | MBC (MRSA-1) [µg/mL] | MIC (S. aureus ATCC 29213) [µg/mL] | MBC (S. aureus ATCC 29213) [µg/mL] | MIC (E. faecium ATCC 35667) [µg/mL] | MBC (E. faecium ATCC 35667) [µg/mL] | MIC (A. baumannii ATCC 19606) [µg/mL] | also measured |
| --- | --- | --- | --- | --- | --- | --- | --- | --- | --- | --- | --- | --- | --- | --- | --- | --- | --- | --- | --- | --- | --- |
| [H]/N=C(\N)NN=C1CCCc2cc(OCc3ccccc3Br)ccc21 [Compound 1Q, (E)-2-(6-((2-bromobenzyl)oxy)-3,4-dihydronaphthalen-1(2H)-ylidene)hydrazine-1-carboximidamide] | 4 (≈ 10.3 µM) | 4 (≈ 10.3 µM) | > 32 | 2 (≈ 5.16 µM) | 8 (≈ 20.7 µM) | ≤ 1 | 4 (≈ 10.3 µM) | 2 (≈ 5.16 µM) | 2 (≈ 5.16 µM) | 2 (≈ 5.16 µM) | 4 (≈ 10.3 µM) | 2 (≈ 5.16 µM) | 4 (≈ 10.3 µM) | 1 (≈ 2.58 µM) | 8 (≈ 20.7 µM) | 4 (≈ 10.3 µM) | 8 (≈ 20.7 µM) | 2 (≈ 5.16 µM) | 8 (≈ 20.7 µM) | 8 (≈ 20.7 µM) | MBC (A. baumannii ATCC 19606): 8 µg/mL (≈ 20.7 µM); MIC [5]: 32 µg/mL (≈ 82.6 µM); MBC [5]: 32 µg/mL (≈ 82.6 µM) |
| [H]/N=C(\N)NN=C1CCCc2cc(OCc3cccc(Br)c3)ccc21 [Compound 1R, (E)-2-(6-((3-bromobenzyl)oxy)-3,4-dihydronaphthalen-1(2H)-ylidene)hydrazine-1-carboximidamide] | 8 (≈ 20.7 µM) | 8 (≈ 20.7 µM) | > 32 | 2 (≈ 5.16 µM) | 4 (≈ 10.3 µM) | 2 (≈ 5.16 µM) | 8 (≈ 20.7 µM) | 2 (≈ 5.16 µM) | 16 (≈ 41.3 µM) | 2 (≈ 5.16 µM) | 4 (≈ 10.3 µM) | 2 (≈ 5.16 µM) | 4 (≈ 10.3 µM) | 2 (≈ 5.16 µM) | 16 (≈ 41.3 µM) | 2 (≈ 5.16 µM) | 16 (≈ 41.3 µM) | 2 (≈ 5.16 µM) | 8 (≈ 20.7 µM) | 4 (≈ 10.3 µM) | MBC (A. baumannii ATCC 19606): 4 µg/mL (≈ 10.3 µM); MIC [5]: 8 µg/mL (≈ 20.7 µM); MBC [5]: 8 µg/mL (≈ 20.7 µM) |
| [H]/N=C(\N)NN=C1CCCc2cc(OCc3ccc(F)cc3Cl)ccc21 [Compound 1T, (E)-2-(6-((2-chloro-4-fluorobenzyl)oxy)-3,4-dihydronaphthalen-1(2H)-ylidene)hydrazine-1-carboximidamide] | 8 (≈ 22.2 µM) | > 32 | > 32 | 2 (≈ 5.54 µM) | 8 (≈ 22.2 µM) | 1 (≈ 2.77 µM) | 4 (≈ 11.1 µM) | 4 (≈ 11.1 µM) | 4 (≈ 11.1 µM) | 1 (≈ 2.77 µM) | 4 (≈ 11.1 µM) | 1 (≈ 2.77 µM) | 4 (≈ 11.1 µM) | 1 (≈ 2.77 µM) | 8 (≈ 22.2 µM) | 2 (≈ 5.54 µM) | 32 (≈ 88.7 µM) | 2 (≈ 5.54 µM) | 16 (≈ 44.3 µM) | 16 (≈ 44.3 µM) | MBC (A. baumannii ATCC 19606): 32 µg/mL (≈ 88.7 µM); MIC [5]: > 32 µg/mL |
| [H]/N=C(\N)NN=C1CCCc2cc(OCc3ccc(C#N)cc3)ccc21 [Compound 1V, (E)-2-(6-((4-cyanobenzyl)oxy)-3,4-dihydronaphthalen-1(2H)-ylidene)hydrazine-1-carboximidamide] | 16 (≈ 48 µM) | 32 (≈ 96 µM) | > 32 | 8 (≈ 24 µM) | 8 (≈ 24 µM) | 8 (≈ 24 µM) | 32 (≈ 96 µM) | 8 (≈ 24 µM) | 8 (≈ 24 µM) | 4 (≈ 12 µM) | 32 (≈ 96 µM) | 4 (≈ 12 µM) | 8 (≈ 24 µM) | 8 (≈ 24 µM) | 16 (≈ 48 µM) | 8 (≈ 24 µM) | 32 (≈ 96 µM) | 16 (≈ 48 µM) | > 32 | 16 (≈ 48 µM) | MBC (A. baumannii ATCC 19606): 32 µg/mL (≈ 96 µM); MIC [5]: 32 µg/mL (≈ 96 µM) |
| [H]/N=C(\N)NN=C1CCCc2cc(OCc3cccc(-c4ccccc4)c3)ccc21 [Compound 1W, (E)-2-(6-([1,1’-biphenyl]-3-ylmethoxy)-3,4-dihydronaphthalen-1(2H)-ylidene)hydrazine-1-carboximidamide] | 32 (≈ 83.2 µM) | 32 (≈ 83.2 µM) | > 32 | 2 (≈ 5.2 µM) | 4 (≈ 10.4 µM) | 2 (≈ 5.2 µM) | 8 (≈ 20.8 µM) | 2 (≈ 5.2 µM) | 4 (≈ 10.4 µM) | 2 (≈ 5.2 µM) | 8 (≈ 20.8 µM) | 2 (≈ 5.2 µM) | 8 (≈ 20.8 µM) | 4 (≈ 10.4 µM) | 32 (≈ 83.2 µM) | 2 (≈ 5.2 µM) | 16 (≈ 41.6 µM) | 2 (≈ 5.2 µM) | 16 (≈ 41.6 µM) | 32 (≈ 83.2 µM) | MBC (A. baumannii ATCC 19606): 32 µg/mL (≈ 83.2 µM); MIC [5]: > 32 µg/mL |
| [H]/N=C(\N)NN=C1CCCc2cc(OCCCCC)ccc21 [Compound 2B, (E)-2-(6-(pentyloxy)-3,4-dihydronaphthalen-1(2H)-ylidene)hydrazine-1-carboximidamide] | 4 (≈ 13.9 µM) | 8 (≈ 27.7 µM) | 16 (≈ 55.5 µM) | 4 (≈ 13.9 µM) | 4 (≈ 13.9 µM) | 4 (≈ 13.9 µM) | 8 (≈ 27.7 µM) | 2 (≈ 6.93 µM) | 2 (≈ 6.93 µM) | 8 (≈ 27.7 µM) | 16 (≈ 55.5 µM) | 8 (≈ 27.7 µM) | 16 (≈ 55.5 µM) | 32 (≈ 111 µM) | 32 (≈ 111 µM) | 1 (≈ 3.47 µM) | 8 (≈ 27.7 µM) | 4 (≈ 13.9 µM) | 16 (≈ 55.5 µM) | 8 (≈ 27.7 µM) | MBC (P. aeruginosa ATCC 27853): 32 µg/mL (≈ 111 µM); MBC (A. baumannii ATCC 19606): 8 µg/mL (≈ 27.7 µM); MIC [5]: 8 µg/mL (≈ 27.7 µM); MBC [5]: 8 µg/mL (≈ 27.7 µM) |
| [H]/N=C(\N)NN=C1CCCc2cc(OCCCCCC)ccc21 [Compound 2C, (E)-2-(6-(hexyloxy)-3,4-dihydronaphthalen-1(2H)-ylidene)hydrazine-1-carboximidamide] | 4 (≈ 13.2 µM) | 4 (≈ 13.2 µM) | 8 (≈ 26.5 µM) | 2 (≈ 6.61 µM) | 4 (≈ 13.2 µM) | 2 (≈ 6.61 µM) | 8 (≈ 26.5 µM) | 4 (≈ 13.2 µM) | 32 (≈ 106 µM) | 8 (≈ 26.5 µM) | 16 (≈ 52.9 µM) | 8 (≈ 26.5 µM) | 32 (≈ 106 µM) | 4 (≈ 13.2 µM) | 16 (≈ 52.9 µM) | 1 (≈ 3.31 µM) | 8 (≈ 26.5 µM) | 2 (≈ 6.61 µM) | 8 (≈ 26.5 µM) | 4 (≈ 13.2 µM) | MBC (P. aeruginosa ATCC 27853): 16 µg/mL (≈ 52.9 µM); MBC (A. baumannii ATCC 19606): 4 µg/mL (≈ 13.2 µM); MIC [5]: 8 µg/mL (≈ 26.5 µM); MBC [5]: 8 µg/mL (≈ 26.5 µM) |
| [H]/N=C(\N)NN=C1CCCc2cc(OCCCCCCCC)ccc21 [Compound 2E, (E)-2-(6-(octyloxy)-3,4-dihydronaphthalen-1(2H)-ylidene)hydrazine-1-carboximidamide] | 4 (≈ 12.1 µM) | 16 (≈ 48.4 µM) | 32 (≈ 96.8 µM) | 1 (≈ 3.03 µM) | 2 (≈ 6.05 µM) | 2 (≈ 6.05 µM) | 4 (≈ 12.1 µM) | 1 (≈ 3.03 µM) | 2 (≈ 6.05 µM) | 1 (≈ 3.03 µM) | 4 (≈ 12.1 µM) | 1 (≈ 3.03 µM) | 4 (≈ 12.1 µM) | 1 (≈ 3.03 µM) | 8 (≈ 24.2 µM) | 2 (≈ 6.05 µM) | 2 (≈ 6.05 µM) | 2 (≈ 6.05 µM) | 4 (≈ 12.1 µM) | 8 (≈ 24.2 µM) | MBC (P. aeruginosa ATCC 27853): > 32 µg/mL; MBC (A. baumannii ATCC 19606): 32 µg/mL (≈ 96.8 µM); MIC [5]: > 32 µg/mL |
